Legend:
[1] = 101 kPa, Liquid; for speed of sound: Frequency=1.5 MHz, Sing-around technique in a fixed-path interferometer; for mass density: Vibrating tube method
[2] = refractive index (Na D-line) (dimensionless); conditions: 101 kPa, Liquid, Standard Abbe refractometry

CCCCO [butan-1-ol]
Conditions | mass density, [1] [kg/m3] | refractive index, [2] | speed of sound, [1] [m/s]
303.15 K | 802.01 | 1.3948 | 1222.7
308.15 K | 798.14 | 1.3927 | 1206.3
313.15 K | 794.22 | 1.3907 | 1189.4
318.15 K | 790.28 | 1.3875 | 1172.8
323.15 K | 786.29 | 1.3848 | 1156.7

— the NIST ThermoML archive (doi:10.1021/acs.jced.5b00343)
